Source: ChEMBL document CHEMBL3832031, “DailyMed|setid=d3c528d2-429d-4f37-9ebf-eee8b9fd3050 | TRENTINOIN - tretinoin gel| Oceanside Pharmaceuticals”

Experiments:
[1] = Bioavailability of Tretinoin following single topical administration of 0.1 % tretinoin gel to 44 male and female subjects.; format: ADME, organism-based; conditions: both, human, in vivo, topical or ocular, dosed compound id 14, dosed compound name TRETINOIN, gender male and female, regimen Single dose, study dosing duration 28 days, tissue Plasma
[2] = Bioavailability of Tretinoin following multiple topical administration of 0.1 % tretinoin gel to 44 male and female subjects.; format: ADME, organism-based; conditions: both, human, in vivo, topical or ocular, dosed compound id 14, dosed compound name TRETINOIN, gender male and female, regimen Multiple dose, study dosing duration 28 days, tissue Plasma

bioavailability [1]: 0.82%
bioavailability [2]: 1.41%
SMILES: CC1=C(/C=C/C(C)=C/C=C/C(C)=C/C(=O)O)C(C)(C)CCC1 [TRETINOIN]
